Patent US9446012B2, “Pharmaceutical compounds” (BIAL-PORTELA & CA, S.A., priority 2006, dated 2016)

Columns and labels:
liver COMT = assay: Liver COMT activity after oral administration (methylation of adrenaline to metanephrine in liver homogenates); format: in vivo, rat; details: FIG. 1; for inhibition of liver COMT / time to maximal inhibitory effect on liver COMT / inhibition of liver COMT activity: 3 mg/kg; for inhibition of liver COMT: 24 hours after administration; for inhibition of liver COMT activity: nine hours after administration
[1] = Plasma levels of L-DOPA and 3-O-methyl-L-DOPA in rats treated with L-DOPA plus benserazide; format: in vivo, rat; details: 3 mg/kg
[2] = Brain levels of L-DOPA, 3-O-methyl-L-DOPA, dopamine, DOPAC and HVA in rats treated with L-DOPA plus benserazide; format: in vivo, rat
[3] = Treatment of Parkinson's disease patients on L-DOPA therapy; format: in vivo, human; details: tablets containing 50 mg
[4] = 3 mg/kg, administered 24 h in advance
[5] = L-DOPA 12 mg/kg plus benserazide 3 mg/kg, all pre-treatment times (1, 7 and 24 h)
[6] = 3 mg/kg, L-DOPA plus benserazide, all pre-treatment times (1, 7 and 24 h)

Question: Which “inhibition of liver COMT” value (liver COMT) does the source give for `Cc1ccc(C(=O)c2cc(O)c(O)c([N+](=O)[O-])c2)cc1` [tolcapone, 3,4-dihydroxy-4′-methyl-5-nitrobenzophenone] here?
Answer: The value was “almost devoid of COMT inhibitory properties”.

Question: And the “time to maximal inhibitory effect on liver COMT” value (liver COMT; after administration)?
Answer: The value was ≤ 30 min.

Question: And the “inhibition of liver COMT activity” value (liver COMT)?
Answer: The value was “minimal inhibitory effects”.

Question: And the 3-O-methyl-L-DOPA plasma levels ([1]; 2 and 7 h after administration)?
Answer: The 3-O-methyl-L-DOPA plasma levels was “Significant changes”.

Question: What about the L-DOPA plasma levels ([1]; 2 and 7 h after administration) of the same molecule?
Answer: Its L-DOPA plasma levels is “Significant changes”.

Question: What about the “plasma levels of 3-O-methyl-L-DOPA” value ([1]; administered 24 h in advance) of the same molecule?
Answer: Its value is “not affected”.

Question: What about the “plasma levels of L-DOPA” value ([1]; administered 24 h in advance) of the same molecule?
Answer: Its value is “not affected”.

Question: What about the “brain levels of 3-O-methyl-L-DOPA” value [2, 4] of the same molecule?
Answer: Its value is “not affected”.

Question: What about the “brain levels of DOPAC” value [2, 4] of the same molecule?
Answer: The value was “not affected”.

Question: And the “brain levels of L-DOPA” value [2, 4]?
Answer: Its value is “not affected”.

Question: And the “brain levels of dopamine” value [2, 4]?
Answer: Its value is “not affected”.

Question: What about the “steadiness of brain delivery of L-DOPA” value ([2]; rat, in vivo) of the same molecule?
Answer: Its value is “marked oscillations”.

Question: With `Cc1nc(Cl)c(-c2noc(-c3cc(O)c(O)c([N+](=O)[O-])c3)n2)c(C)c1Cl` [compound A, 5-[3-(2,5-dichloro-4,6-dimethylpyridin-3-yl)-[1,2,4]oxadiazol-5-yl]-3-nitrobenzene-1,2-diol] as the molecule, how does the “inhibition of liver COMT” value (liver COMT) read?
Answer: The value was 60 % of control levels.

Question: And the “inhibition of liver COMT activity” value (liver COMT)?
Answer: Its value is 90 % of control levels.

Question: What about the “time to maximal inhibitory effect on liver COMT” value (liver COMT; oral administration) of the same molecule?
Answer: Its value is ≤ 360 min.

Question: And the “inhibitor of liver COMT (in words)” value (liver COMT; oral administration)?
Answer: Its value is “potent inhibitor”.

Question: What about the “circulating 3-O-methyl-L-DOPA” value [1, 5] of the same molecule?
Answer: Its value is “marked decrease”.

Question: And the “plasma L-DOPA” value [1, 5]?
Answer: Its value is “significant increases”.

Question: What about the “brain 3-O-methyl-L-DOPA” value [2, 6] of the same molecule?
Answer: The value was “marked decrease”.

Question: And the “brain DOPAC” value [2, 6]?
Answer: Its value is “significant increases”.

Question: And the “brain L-DOPA” value [2, 6]?
Answer: The value was “significant increases”.

Question: What about the brain dopamine [2, 6] of the same molecule?
Answer: Its brain dopamine is “significant increases”.

Question: And the clinical picture [3]?
Answer: Its clinical picture is “significant improvement”.
